In patent US4800199A, “3-[2-thiazoloamino]-8-oxo-7-substituted-5-thia-1-a zabicyclo-[4.2.0]oct-2-ene-2-carboxylic acid and salts thereof and diphenylmethyl esters thereof” (American Cyanamid Company, priority 1986, dated 1989):
Values after ≈ are worked out from the molar mass of the structure shown.

Tests used:
Experiment in all cases: In vitro antibacterial activity, Mueller-Hinton agar dilution
Assay type in all cases: cell-based
[1] = test system: Pseudomonas aeruginosa ATCC 27853; conditions: ATCC27853, read-out: Minimal Inhibitory Concentration
From the text: (§1) The results of this test on representative compounds of this invention appear in Table I.

[2] = test system: Citrobacter diversis K83-24; conditions: K8324, read-out: Minimal Inhibitory Concentration
From the text: as §1

[3] = test system: Pseudomonas aeruginosa 12-4-4; conditions: 1244, read-out: Minimal Inhibitory Concentration
From the text: as §1

[4] = test system: Escherichia coli 311; conditions: read-out: Minimal Inhibitory Concentration
From the text: as §1

[5] = test system: Staphylococcus aureus SSC 82-57; conditions: SSC8257, read-out: Minimal Inhibitory Concentration
From the text: as §1

[6] = test system: Staphylococcus aureus SSC 82-20; conditions: SSC8220, read-out: Minimal Inhibitory Concentration
From the text: as §1

[7] = test system: Staphylococcus aureus SSC 82-26; conditions: SSC8226, read-out: Minimal Inhibitory Concentration
From the text: as §1

[8] = test system: Enterobacter aerogenes IO 83-44; conditions: Klebsiella aerogenes, IO8344, read-out: Minimal Inhibitory Concentration
From the text: as §1

[9] = test system: Acinetobacter CMC 83-89; conditions: CMC8389, read-out: Minimal Inhibitory Concentration
From the text: as §1

[10] = test system: Pseudonmonas aeruginosa CMC 83-19; conditions: read-out: Minimal Inhibitory Concentration
From the text: as §1

[11] = test system: Klebsiella pneumoniae AD; conditions: read-out: Minimal Inhibitory Concentration
From the text: as §1

[12] = test system: Bacillus subtilis ATCC 6633; conditions: ATCC6633, read-out: Minimal Inhibitory Concentration
From the text: as §1

[13] = test system: Staphylococcus aureus ATCC 25923; conditions: ATCC25923, read-out: Minimal Inhibitory Concentration
From the text: as §1

[14] = test system: Serratia marcescens CMC 83-27; conditions: CMC8327, read-out: Minimal Inhibitory Concentration
From the text: as §1

[15] = test system: Staphylococcus epidermidis ATCC 12228; conditions: ATCC12228, read-out: Minimal Inhibitory Concentration
From the text: as §1

[16] = test system: Citrobacter freundii IO 83-13; conditions: IO8313, read-out: Minimal Inhibitory Concentration
From the text: as §1

[17] = test system: Proteus rettgheri IO 83-21; conditions: read-out: Minimal Inhibitory Concentration
From the text: as §1

[18] = test system: Acinetobacter IO 83-49; conditions: IO8349, read-out: Minimal Inhibitory Concentration
From the text: as §1

[19] = test system: Staphylococcus aureus SSC 82-24; conditions: SSC8224, read-out: Minimal Inhibitory Concentration
From the text: as §1

[20] = test system: Enterobacter cloacae CMC 84-4; conditions: CMC844, read-out: Minimal Inhibitory Concentration
From the text: as §1

[21] = test system: Streptococcus faecalis ATCC 29212; conditions: Enterococcus faecalis, ATCC29212, read-out: Minimal Inhibitory Concentration
From the text: as §1

[22] = test system: Morganella morganii IO 83-18; conditions: IO8318, read-out: Minimal Inhibitory Concentration
From the text: as §1

[23] = test system: Escherichia coli CMC 84-11; conditions: CMC8411, read-out: Minimal Inhibitory Concentration
From the text: as §1

[24] = test system: Micrococcus lutea PC 1001; conditions: PC1001, read-out: Minimal Inhibitory Concentration
From the text: as §1

[25] = test system: Providencia stuartii CMC 83-82; conditions: CMC8382, read-out: Minimal Inhibitory Concentration
From the text: as §1

[26] = test system: Enterococcus CMC 83-53; conditions: CMC8353, read-out: Minimal Inhibitory Concentration
From the text: as §1

[27] = test system: Staphylococcus aureus SSC 82-31; conditions: SSC8231, read-out: Minimal Inhibitory Concentration
From the text: as §1

[28] = test system: Staphylococcus epidermidis CMC 83-133; conditions: CMC83133, read-out: Minimal Inhibitory Concentration
From the text: as §1

[29] = test system: Serratia marcescens F-35; conditions: F35, read-out: Minimal Inhibitory Concentration
From the text: as §1

[30] = test system: Escherichia coli ATCC 25922; conditions: ATCC25922, read-out: Minimal Inhibitory Concentration
From the text: as §1

[31] = test system: Klebsiella oxytoca IO 83-1; conditions: IO831, read-out: Minimal Inhibitory Concentration
From the text: as §1

[32] = test system: Klebsiella pneumoniae CMC 84-5; conditions: CMC845, read-out: Minimal Inhibitory Concentration
From the text: as §1

Row | Compound | MIC [1] | MIC [2] | MIC [3] | MIC [4] | MIC [5] | MIC [6] | MIC [7] | MIC [8] | MIC [9] | MIC [10] | MIC [11] | MIC [12] | MIC [13] | MIC [14] | MIC [15] | MIC [16] | MIC [17] | MIC [18] | MIC [19] | MIC [20] | other results
1 | CC(=O)OCC1=C(C(=O)O)N2C(=O)[C@@H](Nc3nc(C(=O)O)cs3)[C@H]2SC1 [Example 7, (6R-trans)-3-[(Acetyloxy)methyl]-7-[(4-carboxy-2-thiazolyl)amino]-8-oxo-5-thia-1-azabicyclo[4.2.0]oct-2-ene-2-carboxylic acid] | > 128 µg/mL | > 128 µg/mL | > 128 µg/mL | > 128 µg/mL | 128 µg/mL (≈ 320 µM) | 16 µg/mL (≈ 40.1 µM) | 8 µg/mL (≈ 20 µM) | > 128 µg/mL | > 128 µg/mL | > 128 µg/mL | > 128 µg/mL | 8 µg/mL (≈ 20 µM) | 8 µg/mL (≈ 20 µM) | > 128 µg/mL | 4 µg/mL (≈ 10 µM) | > 128 µg/mL | 128 µg/mL (≈ 320 µM) | > 128 µg/mL | > 128 µg/mL | > 128 µg/mL | MIC [21]: > 128 µg/mL; MIC [22]: > 128 µg/mL; MIC [23]: > 128 µg/mL; MIC [24]: 16 µg/mL (≈ 40.1 µM); MIC [25]: > 128 µg/mL; MIC [26]: > 128 µg/mL; MIC [27]: 8 µg/mL (≈ 20 µM); MIC [28]: 2 µg/mL (≈ 5.01 µM); MIC [29]: > 128 µg/mL; MIC [30]: > 128 µg/mL; MIC [31]: > 128 µg/mL; MIC [32]: > 128 µg/mL
2 | CC(=O)OCC1=C(C(=O)O)N2C(=O)[C@@H](Nc3nc(C(=O)OCC(Cl)(Cl)Cl)cs3)[C@H]2SC1 [Example 9, (6R-trans)-3-[(Acetyloxy)methyl]-8-oxo-7-[[4-[(2,2,2-trichloroethoxy)carbonyl]-2-thiazolyl]amino]-5-thia-1-azabicyclo[4.2.0]oct-2-ene-2-carboxylic acid] | > 128 µg/mL | > 128 µg/mL | > 128 µg/mL | > 128 µg/mL | 128 µg/mL (≈ 241 µM) | 0.25 µg/mL (≈ 0.471 µM) | 0.12 µg/mL (≈ 0.226 µM) | > 128 µg/mL | > 128 µg/mL | > 128 µg/mL | > 128 µg/mL | 0.5 µg/mL (≈ 0.942 µM) | 0.12 µg/mL (≈ 0.226 µM) | > 128 µg/mL | ≤ 0.06 µg/mL | > 128 µg/mL | 64 µg/mL (≈ 121 µM) | > 128 µg/mL | > 128 µg/mL | > 128 µg/mL | MIC [21]: 16 µg/mL (≈ 30.1 µM); MIC [22]: > 128 µg/mL; MIC [23]: > 128 µg/mL; MIC [24]: 1 µg/mL (≈ 1.88 µM); MIC [25]: > 128 µg/mL; MIC [26]: 64 µg/mL (≈ 121 µM); MIC [27]: ≤ 0.06 µg/mL; MIC [28]: ≤ 0.06 µg/mL; MIC [29]: > 128 µg/mL; MIC [30]: > 128 µg/mL; MIC [31]: > 128 µg/mL; MIC [32]: > 128 µg/mL
3 | CC(=O)OCC1=C(C(=O)O)N2C(=O)[C@@H](Nc3nc(C(=O)NCc4ccccc4)cs3)[C@H]2SC1 [Example 11, (6R-trans)-3-[(Acetyloxy)methyl]-8-oxo-7-[[4-[[(phenylmethyl)amino]carbonyl]-2-thiazolyl]amino]-5-thia-1-azabicyclo[4.2.0]oct-2-ene-2-carboxylic acid] | > 128 µg/mL | > 128 µg/mL | > 128 µg/mL | > 128 µg/mL | 128 µg/mL (≈ 262 µM) | 8 µg/mL (≈ 16.4 µM) | 4 µg/mL (≈ 8.19 µM) | > 128 µg/mL | > 128 µg/mL | > 128 µg/mL | > 128 µg/mL | 8 µg/mL (≈ 16.4 µM) | 4 µg/mL (≈ 8.19 µM) | > 128 µg/mL | 2 µg/mL (≈ 4.09 µM) | > 128 µg/mL | > 128 µg/mL | > 128 µg/mL | > 128 µg/mL | > 128 µg/mL | MIC [21]: > 128 µg/mL; MIC [22]: > 128 µg/mL; MIC [23]: > 128 µg/mL; MIC [24]: 8 µg/mL (≈ 16.4 µM); MIC [25]: > 128 µg/mL; MIC [26]: > 128 µg/mL; MIC [27]: 4 µg/mL (≈ 8.19 µM); MIC [28]: 2 µg/mL (≈ 4.09 µM); MIC [29]: > 128 µg/mL; MIC [30]: > 128 µg/mL; MIC [31]: > 128 µg/mL; MIC [32]: > 128 µg/mL
4 | CC(=O)OCC1=C(C(=O)O)N2C(=O)[C@@H](Nc3nc(C)cs3)[C@H]2SC1 [Example 12, (6R-trans)-3-[(Acetyloxy)methyl]-7-[(4-methyl-2-thiazolyl)amino]-8-oxo-5-thia-1-azabicyclo[4.2.0]oct-2-ene-2-carboxylic acid] | > 128 µg/mL | > 128 µg/mL | > 128 µg/mL | 64 µg/mL (≈ 173 µM) | 128 µg/mL (≈ 346 µM) | 4 µg/mL (≈ 10.8 µM) | 4 µg/mL (≈ 10.8 µM) | > 128 µg/mL | > 128 µg/mL | > 128 µg/mL | 64 µg/mL (≈ 173 µM) | 1 µg/mL (≈ 2.71 µM) | 4 µg/mL (≈ 10.8 µM) | > 128 µg/mL | 2 µg/mL (≈ 5.41 µM) | > 128 µg/mL | > 128 µg/mL | > 128 µg/mL | 64 µg/mL (≈ 173 µM) | > 128 µg/mL | MIC [21]: 128 µg/mL (≈ 346 µM); MIC [22]: > 128 µg/mL; MIC [23]: > 128 µg/mL; MIC [24]: 4 µg/mL (≈ 10.8 µM); MIC [25]: > 128 µg/mL; MIC [26]: 128 µg/mL (≈ 346 µM); MIC [27]: 4 µg/mL (≈ 10.8 µM); MIC [28]: 2 µg/mL (≈ 5.41 µM); MIC [29]: > 128 µg/mL; MIC [30]: > 128 µg/mL; MIC [31]: > 128 µg/mL; MIC [32]: 128 µg/mL (≈ 346 µM)
